Results: publication PMC9696361, “Nanocrystallization Improves the Solubilization and Cytotoxic Effect of a Poly (ADP-Ribose)-Polymerase-I Inhibitor” (Polymers, 2022)
Converted amounts (≈) assume the structure as drawn.

What was measured:
[1] = Oral pharmacokinetic study in rats; type: in vivo, Male Wistar rats
Caspase-9 = Caspase-9 by ELISA in MCF-7 cells; type: cell-based, human; conditions: OLA 10 µgmL^−1, vs untreated control
Method: (§1) The p53, Caspase-3 and Caspase-9 activities were measured by ELISA kits following the manufacture’s protocol and reported works. The MCF-7 cells (5 × 10^4 cells/well) were seeded in 96-well plates. The seeded cells were treated with the AqS of OLA-pure and OLA-NCs. The concentration of OLA was kept 10 µgmL^−1, which was approximately near to the IC50 value of the OLA-NCs-2 (9.71 µgmL^−1). The untreated cells were served as control. All the treated cells were allowed to equilibrate at ambient temperature. Approximately 100 µL of p53, Caspase-3 and Caspase-9 reagents were transferred into the respective wells of the plate containing 100 µL of culture media. The plates were covered and stirred for 1–2 min at 500 rpm and then incubated at ambient temperature. After 1 h of incubation the OD was measured at 405 nm wavelength by microplate reader.

[2] = parameters: method as in PMID 24700236; conditions: cited from earlier work
p53 = p53 by ELISA in MCF-7 cells; type: cell-based, human; conditions: OLA 10 µgmL^−1, vs untreated control
Method: as §1

Caspase-3 = Caspase-3 by ELISA in MCF-7 cells; type: cell-based, human; conditions: OLA 10 µgmL^−1, vs untreated control
Method: as §1

MCF-7 cells = assay: MTT or cell proliferation assay; type: cell-based; conditions: Homo sapiens, MCF7, 48 h, 48 h of incubation, MTT
Method: The MCF-7 cells were procured from the American Type Cutler Collection (Manassas, VA, USA). Cells were grown in 50 cm^2 tissue culture flasks using “Dulbecco’s Modified Eagle Medium (DMEM) (UFC Biotech, Riyadh, Saudi Arabia)” at 37 °C in an incubator humidified by 5% CO2. The media was accompanied with 10% fetal bovine serum (Alpha Chemika, Mumbai, India), 1% mixture of Penicillin (100 units·mL^−1): Streptomycin (100 µg·mL^−1) by ThermoFischer Scientific, Waltham, MA, USA, Amphotericin-B (250 ngmL^−1) by Gibco® (Grand Island, NY, USA) and 1% of L-glutamine (BioWest, Riverside, MO, USA). The MTT was purchased from Sigma Aldrich, St. Louis, MO, USA. […]
The anticancer activity of pure drug (OLA)-AqS and OLA-NCs-2 against MCF-7 were examined by assessing the viability of the treated cells by MTT assay. […] The assay was done by observing the enzymatic reduction of a water-soluble dye [3-(4,5-dimethylthiazol-2-yl)-2,5-diphenyltetrazolium bromide] into an insoluble formazan, where the quantitation of formazan designates the relative viability of the cells. […] Optical density (OD) was measured at 570 nm using the spectrophotometric microplate reader (Synergy HT, BioTek Instruments, Winooskim, VT, USA). The cell viability (%) was calculated by Equation (4). […] The IC50 values were calculated as Log (inhibitor) versus normalized response on variable slopes through GraphPad Prism V-5.1. […]

P-glycoprotein (Pgp) = system: P-glycoprotein (Pgp); parameters: method as in PMID 24700236; conditions: cited from earlier work
[3] = Oral pharmacokinetic study in rats; type: in vivo, Male Wistar rats; remark: listed apart in the source
Method: Male Wistar rats were used for this study. The Standing Committee of Bioethics Research (SCBR) at Prince Sattam bin Abdulaziz University, Deanship of Scientific Research has granted the animal ethical approval (SCBR-030-2022) for in vivo studies on rats. Twelve rats were divided in two groups. Group-1 for OLA-AqS and Group-II for OLA-NCs. Each animal of the respective groups received OLA-AqS and OLA-NCs individually. Oral route was selected for the administration of all OLA formulations at 25 mg·kg^−1 of body weight equivalent dose of OLA was given orally to all animals. At predetermined time points (0.25, 0.5, 1, 3, 6 and 9 h) approximately 0.5 mL of blood was aspirated through retro orbital plexus from each animal. The samples were collected in heparinized tubes and centrifuged at 6000 rpm for 10 min and at 4 °C to obtain the plasma. Approximately 200 µL supernatant (plasma) was collected and stored at −80 °C till analysis was performed.
Previously reported RP-HPLC method was used for the analysis of OLA in the plasma samples [7, 20]. In brief, the HPLC system (Waters® 1500 Series, Milford, MA, USA) was fitted out with UV-dual absorbance detector (Waters® Model-2489), Binary pump (Waters® Moel-1525), Autosampler (Waters® Model-2707 plus). The HPLC-UV system was monitored and controlled by the “Breeze software”. A C18 Waters symmetry column (150 × 4.6 mm, 5 µm, particle size) was used for the elution of OLA and Paclitaxel (used as internal standard, IS). The mobile phase composed of ammonium acetate buffer (pH was adjusted to 3.5 by Orthophosphoric acid) and Methanol at 50:50 (v/v) was pumped at isocratic mode at the flow rate of 1 mL·min^−1. The UV-detection wavelength was 254 nm (for OLA) and 230 nm (for IS). The column heater temperature was set to 35 °C and the volume of injection was 30 µL.
Protein precipitation method (simple with high recovery) was used for the drug extraction from the collected plasma samples. The calibration curve samples were prepared by pipetting 50 μL of working stock solution of OLA (in methanol) and 20 μL of IS (20 µg/mL) into 140 μL of plasma and the mixture was vortexed for 30 s. Acetonitrile (290 μL) was added into the obtained mixture for protein precipitation, vortexed for 2 min and then centrifuged at 13,500 rpm for 10 min. Approximately 200 µL of the supernatant was collected and 30 µL of the supernatant was injected into HPLC system for the quantification of the drugs in the samples.
The results were represented as mean with standard deviation (± SD), unless otherwise indicated. The statistical analysis was performed using GraphPad Prism: Version-5.1 (GraphPad Software, Inc., San Diego, CA, USA). The pharmacokinetics parameters was calculated by “PK-Solver Software, Nanjing, China using MS-Excel-2013” through the non-compartmental approach. The comparative analysis of the data was accomplished by Student’s t-test and p < 0.05 was considered as statistically significant, unless otherwise indicated.

[4] = Saturation solubility of pure OLA and its NCs; type: physicochemical; conditions: thermodynamic from solid
Method: The excess amount of pure OLA and NCs in triplicate were added into 1 mL of each solvent in glass vials. The mixtures were vortexed for 30 s and put into an orbital shaking (at 100 stroke per min) water bath (Julabo®, Allentown, PA, USA) maintained at 37 ± 1 °C for 72 h. Thereafter, vials were taken out and kept at room temperature for 24 h to settle down the undissolved drugs. Then, the supernatants were collected, filtered by 0.45 µ filtration unit (Millipore, Molsheim, France), diluted (if needed) and 30 µL was injected into HPLC-UV system for the quantification of the dissolved drugs.

[5] = male, Wistar, rat, plasma, single oral dose 25 mg·kg^−1

AUC(0-t) ([1]; male, Wistar, rat, plasma, single oral dose 25 mg·kg^−1, read-out: AUC0–12 h): 882 ± 137 ng·h/mL
Last plasma sample in which the drug was detected ([1]; oral, undetected in 10 h and 12 h samples): up to 8 h
IC50 (MCF-7 cells): 28.4 µg/mL
AUC(0-inf) [3, 5]: 913 ± 138 ng·h/mL
Tmax [3, 5]: 2 h
half-life [3, 5]: 1.36 ± 0.04 h
MRT inf ([3]; male, Wistar, rat, plasma, single oral dose 25 mg·kg^−1, read-out: MRT0-∞): 3.37 ± 0.03 h
Cmax ([3]; male, Wistar, rat, single oral dose 25 mg·kg^−1, plasma): 278 ± 46.5 ng/mL
AUMC0-∞ ([3]; single oral dose 25 mg·kg^−1): 3081.17 ± 471.32 ng·mL^−1·h^2
Cl/F ([3]; single oral dose 25 mg·kg^−1, listed as OLA-Pure): 6.94 ± 0.96 L/h
Cl/F ([3]; single oral dose 25 mg·kg^−1, listed as OLA-pure): 6.94 L/h
solubility ([4]; 0.1N HCl with 0.5% Soluplus, 37 °C, aqueous with cosolvent or surfactant or cyclodextrin, in 0.1N HCl (pH 1.2) with 0.5% Soluplus): 31.1 ± 3.9 µg/mL (≈ 71.6 µM)
solubility ([4]; 0.1N HCl with 0.5% Tween-80, 37 °C, aqueous with cosolvent or surfactant or cyclodextrin, in 0.1N HCl (pH 1.2) with 0.5% Tween-80): 12.7 ± 3.9 µg/mL (≈ 29.2 µM)
solubility ([4]; 37 °C, simulated gastric fluid, in 0.1N HCl (pH 1.2)): 7.1 ± 2.7 µg/mL (≈ 16.3 µM)
solubility at 72 h ([4]; phosphate buffer (PBS) with 0.5% Soluplus, pH 7.4, aqueous with cosolvent or surfactant or cyclodextrin, in PBS with 0.5% Soluplus, 37 °C): 35.6 ± 7.2 µg/mL (≈ 81.9 µM)
solubility at 72 h ([4]; phosphate buffer (PBS) with 0.5% Tween-80, pH 7.4, aqueous with cosolvent or surfactant or cyclodextrin, in PBS with 0.5% Tween-80, 37 °C): 14.2 ± 5.1 µg/mL (≈ 32.7 µM)
solubility at 72 h ([4]; phosphate buffer (PBS), pH 7.4, aqueous buffer, in PBS, 37 °C): 9.3 ± 2.4 µg/mL (≈ 21.4 µM)
Structure (SMILES): O=C(c1cc(Cc2n[nH]c(=O)c3ccccc23)ccc1F)N1CCN(C(=O)C2CC2)CC1 [OLA, Olaparib]
Increased expression of Caspase-9 vs control (Caspase-9): ~2 folds
Solubility at intestinal fluid pH [2]: 0.16 mg·mL^−1
p53 protein expression, times higher than control (p53): 7.2 times
Increased activities of Caspase-3 vs control (Caspase-3): approximately 4.3 folds
Concentration at which the Pgp-mediated efflux is saturated (P-glycoprotein (Pgp)): > 260 µM
